Assay results published in PMC8329197, “Compounds targeting OSBPL7 increase ABCA1-dependent cholesterol efflux preserving kidney function in two models of kidney disease” (Nature Communications, 2021).
“And” between values parts separate entries of the source, which are not always exact repeats. Equal entries are not always repeated.

How the values were obtained:
human THP1 macrophages = assay: apoAI-mediated (ABCA1) cholesterol efflux from cholesterol-loaded THP1 macrophages; format: cell-based; set-up: ABCA1 Efflux %: dose or concentration left out as unconfirmed; details: for ApoA1-mediated Cholesterol Efflux (Fold increase over vehicle control), mean / ApoA1-mediated Cholesterol Efflux (%) / ApoA1-mediated Cholesterol Efflux (Fold increase over vehicle control): 5 µM; for ApoA1-mediated Cholesterol Efflux (Fold increase over vehicle control), mean / ApoA1-mediated Cholesterol Efflux (%) / ApoA1-mediated Cholesterol Efflux (Fold increase over vehicle control) / ABCA1 Efflux active/ inactive: THP1 cells; for ApoA1-mediated Cholesterol Efflux (Fold increase over vehicle control), mean: mean of 3; for ApoA1-mediated Cholesterol Efflux (%) / ApoA1-mediated Cholesterol Efflux (Fold increase over vehicle control): single experiments; for Induction of ABCA1 cholesterol efflux: THP1 cells (Fig. 3a, 4a); for EC50: THP-1, apoAI-dependent cholesterol efflux from human THP1 cells; for ABCA1 percentage of induction, average: average of 3; for ABCA1 Efflux %: average(SEM); for ABCA1 percentage of induction: single experiments (3 per compound); for ABCA1 Efflux active/ inactive: vs. the effect of T1317
[1] = target: human cannabinoid 1 receptor (hCB1-R) (Homo sapiens, UniProt P21554); assay: Potency for binding to the CB1R in vitro (Ki); details: for Ki: human CB1 receptor binding
Chain of human cannabinoid 1 receptor (hCB1-R) (P21554 whole entry): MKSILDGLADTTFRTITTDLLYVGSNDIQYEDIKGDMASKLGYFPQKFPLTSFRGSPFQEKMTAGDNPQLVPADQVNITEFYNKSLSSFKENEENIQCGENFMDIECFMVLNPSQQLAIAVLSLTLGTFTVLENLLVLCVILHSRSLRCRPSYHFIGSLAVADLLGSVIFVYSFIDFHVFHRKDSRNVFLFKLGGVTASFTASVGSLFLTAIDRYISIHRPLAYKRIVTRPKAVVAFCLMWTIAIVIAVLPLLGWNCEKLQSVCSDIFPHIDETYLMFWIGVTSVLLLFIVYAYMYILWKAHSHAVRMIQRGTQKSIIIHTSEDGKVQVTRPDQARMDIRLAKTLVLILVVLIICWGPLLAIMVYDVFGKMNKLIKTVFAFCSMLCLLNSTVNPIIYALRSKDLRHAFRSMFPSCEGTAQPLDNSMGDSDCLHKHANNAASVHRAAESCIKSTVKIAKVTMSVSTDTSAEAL

OSBPL7 = system: T1, OSBPL7; assay: Competition with ^3H-Cpd K UV cross-linking to FLAG-tagged OSBPL7 in HEK293 cells (immunoprecipitation, autoradiography); format: binding, human; set-up: OSBP7 percentage of inhibition / OSBP7 percentage of inhibition, average: concentration or dose not given beside the values; OSBPL7 Competition %: dose or concentration left out as unconfirmed; details: for OSBP7 percentage of inhibition, average: average of 3; for OSBPL7 Competition %: average(SEM); for OSBP7 percentage of inhibition: single experiments (3 per compound)
T1 construct: Plasmids expressing each as a full-length protein with a C-terminal FLAG tag were obtained; expressed in transfected cells; host or cells: HEK293
Experimental: Briefly, a plasmid expressing a candidate target of interest fused with a FLAG tag was transfected into HEK293 cells. After 24 h, tritiated compound K at a concentration capable of inducing ABCA1-mediated cholesterol efflux (1.0 μM) was added for 3 h, then the live cells were exposed to UV-light (ʎ = 336 nm) to query potential compound/target cross-linking in situ. Cell lysates were prepared, the expressed protein was then selectively immunoprecipitated using an anti-FLAG antibody coupled to sepharose beads, bound proteins were separated by SDS-PAGE, and two identical blots were prepared and probed by western blot and by autoradiography to detect protein expression and presence or absence of compound crosslinking, respectively. The flow chart of this screen is illustrated in Fig. 2. Figure 2d illustrates the ability of Cpd A and Cpd G to displace tritiated Cpd K from overexpressed and immunoprecipitated OSBPL7. Figure 3b illustrates the use of this assay to detect binding of tritiated Cpd K to overexpressed and immunoprecipitated variants of OSBPL7 containing point mutations in the predicted oxysterol binging pocket of OSBPL7. The advantages of this method are: i. the use of plasmid transfection leads to high expression of each candidate which reduces the likelihood to miss an authentic target for those which may be expressed at low endogenous levels, ii. the interaction of the chemical probe with its target occurs in a relevant biological context (live cells) at a pharmacologically active concentration, and iii. immunoprecipitation allows the expressed protein of interest to be purified from background proteins, substantially improving the signal/noise ratio.

ABCA1 mRNA = ABCA1 mRNA by quantitative real-time PCR in cholesterol-loaded THP1 macrophages; format: cell-based, human; details: 24 h; for Effect on ABCA1 mRNA: up to 25 μM, THP1 macrophages
Experimental: RNA was isolated using RNEasy Plus Mini kit (Qiagen). Reverse transcription was performed using qScript cDNA Super Mix (Quantabio) according to the manufacturer’s instructions. Quantitative real-time PCR was performed using TaqMan Fast Universal PCR Master Mix and Taqman gene expression assays (Supplementary Table 7).

normal human fibroblasts = assay: Cholesterol efflux to apoAI in normal human fibroblasts; details: for Cholesterol Efflux (%), Normal Fibroblasts: efflux to apoAI, Cpd H, Cpd J 10 μM, single experiments
[2] = system: Tangier (ABCA1-deficient) fibroblasts; assay: Cholesterol efflux in Tangier (ABCA1-deficient) fibroblasts; details: for Cholesterol Efflux (%), Tangier Fibroblasts: ABCA1-deficient, Cpd H, Cpd J 10 μM, single experiments
[3] = system: T2, OSBPL7 single mutations in the putative ORD; assay: ^3H-Cpd K binding to OSBPL7 single mutants (cross-linking/immunoprecipitation); set-up: species or system human; details: K636A vs wild type
T2 construct: Plasmids expressing each as a full-length protein with a C-terminal FLAG tag were obtained; expressed in transfected cells; host or cells: HEK293
Text: Based on the model, we identified key amino acid residues predicted to line the OSBPL7 ligand-binding pocket, and introduced a series of single mutations. Each mutant was transfected into cells and tested for ^3H-Cpd K binding. Mutation of lysine 636 to alanine reduced the ability of Cpd K to be crosslinked to OSBPL7 by ~75% (Fig. 3b). […] The homology model also predicts that a hydrophobic beta sheet lines the pocket, defined by amino acids that are conserved in the ORDs of other OSBPs (Ile641, Val616, Val618, and Lys636).
Briefly, a plasmid expressing a candidate target of interest fused with a FLAG tag was transfected into HEK293 cells. After 24 h, tritiated compound K at a concentration capable of inducing ABCA1-mediated cholesterol efflux (1.0 μM) was added for 3 h, then the live cells were exposed to UV-light (ʎ = 336 nm) to query potential compound/target cross-linking in situ. Cell lysates were prepared, the expressed protein was then selectively immunoprecipitated using an anti-FLAG antibody coupled to sepharose beads, bound proteins were separated by SDS-PAGE, and two identical blots were prepared and probed by western blot and by autoradiography to detect protein expression and presence or absence of compound crosslinking, respectively. The flow chart of this screen is illustrated in Fig. 2. […]

Col4a3 KO mice = assay: Alport syndrome model: ACR, serum creatinine, BUN, body weight (also vs ramipril); details: individual mouse values
[4] = 8-week old Col4a3 KO mice, 28 days treatment starting at the age of 4 weeks

Row | SMILES | ABCA1 percentage of induction, average (human THP1 macrophages) | ABCA1 Efflux % (human THP1 macrophages) | ABCA1 percentage of induction (human THP1 macrophages) | Ki [1] | OSBP7 percentage of inhibition, average (OSBPL7) | OSBPL7 Competition % (OSBPL7) | OSBP7 percentage of inhibition (OSBPL7) | ABCA1 Efflux active/ inactive (human THP1 macrophages) | other results
1 | CCCCC/C=C\C/C=C\C/C=C\C/C=C\CCCC(=O)NCCCl [ACEA, arachidonyl choloroethylamine, reference compound] |  |  |  |  |  |  |  |  | ApoA1-mediated Cholesterol Efflux (Fold increase over vehicle control), mean (human THP1 macrophages): 0.962 fold; ApoA1-mediated Cholesterol Efflux (%) (human THP1 macrophages): 3% and 2.5% and 1.4%; ApoA1-mediated Cholesterol Efflux (Fold increase over vehicle control) (human THP1 macrophages): 1.047 fold and 1.044 fold and 0.796 fold; Induction of ABCA1 cholesterol efflux (human THP1 macrophages): inactive
2 | O=C(N[C@@H]1CCCC[C@H]1O)c1cnc(OCC2CC2)c(-c2ccc(Cl)cc2)c1 [Cpd H] | 106% | 106(6.8) % | 112% and 92% and 113% | 11.4 ± 4.5 nM | 55% | 55(5.0) % | 49% and 51% and 65% |  | EC50 (human THP1 macrophages): 120 nM; Effect on ABCA1 mRNA (ABCA1 mRNA): no effect; Cholesterol efflux to apoAI from normal fibroblasts (normal human fibroblasts): increase cholesterol efflux to apoAI from normal; Cholesterol Efflux (%), Normal Fibroblasts (normal human fibroblasts): 3.97% and 4.44% and 4.67%; Cholesterol efflux to apoAI from ABCA1-deficient fibroblasts [2]: not from ABCA1-deficient fibroblasts; Cholesterol Efflux (%), Tangier Fibroblasts [2]: 1.75% and 1.88% and 1.89%
3 | O=C(N[C@@H]1CCCC[C@H]1O)c1cnc(OCC(F)(F)F)c(-c2ccc(Cl)cc2)c1 [Cpd J] | 100% | 100(15.0) % | 83% and 130% and 87% | 12.4 ± 6.7 nM | 40% | 40(12.2) % |  |  | Effect on ABCA1 mRNA (ABCA1 mRNA): no effect; Cholesterol efflux to apoAI from normal fibroblasts (normal human fibroblasts): increase cholesterol efflux to apoAI from normal; Cholesterol Efflux (%), Normal Fibroblasts (normal human fibroblasts): 5.75% and 6.18% and 6.91%; Cholesterol efflux to apoAI from ABCA1-deficient fibroblasts [2]: not from ABCA1-deficient fibroblasts; Cholesterol Efflux (%), Tangier Fibroblasts [2]: 1.8% and 2.06% and 2.65%
4 | [N-]=[N+]=Nc1ccc(-c2cc(C(=O)N[C@@H]3CCCC[C@H]3O)cnc2OCC2CC2)cc1Cl [Cpd K, 5-(4-azido-3-chlorophenyl)-6-(cyclopropylmethoxy)-N-[(1R,2R)-2-hydroxycyclohexyl]-3-pyridine-carboxamide] | 49% | 49(10.7) % |  | 2570 nM | 68% | 68(3.8) % | 62% and 75% and 68% |  | Fold reduced affinity for hCB1R ([1]; vs Cpd H): more than 200 fold; Competition for ^3H-Cpd K binding to OSBPL7 (OSBPL7; unlabeled Cpd K at 50-fold excess, Cpd A, Cpd G 10 and 50 µM): effectively competed; Reduction of binding/crosslinking to OSBPL7 by mutation K636A [3]: ~ 75%
5 | O=C(N[C@H]1CCCC[C@H]1O)c1cnc(OCC(F)(F)F)c(-c2ccc(Cl)c(Cl)c2)c1 [Cpd L] | 104% | 104(18.8) % | 94% and 77% and 140% | 7000 nM | 53% | 53(4.7) % | 55% and 44% and 60% |  | 
6 | O=C(Nc1cnc(OCC(F)(F)F)c(-c2ccc(Cl)cc2)c1)c1cccnc1 [Cpd M] | 113% | 133(42.5) % |  | > 10000 nM | 98% | 98(5.2) % | 107% and 97% and 89% |  | 
7 | CCCCNC(=O)CCc1ccc(-c2cc(C(=O)N[C@@H]3CCCC[C@H]3O)cnc2OCC2CC2)cc1 [Cpd N] | 24% | 24(5.0) % |  |  | 38% | 38(9.5) % |  | Inactive | 
8 | Cn1cccc(NC(=O)c2cc(-c3ccc(Cl)cc3)c(OCC(F)(F)F)cn2)c1=O [Cpd P] | 3.67% | 4(0.9) % | 4% and 5% and 2% |  | 0% | 0(0) % | 0% | Inactive | 
9 | O=C(N[C@@H]1CCCOC1=O)c1cc(-c2ccc(Cl)cc2)c(OCC(F)(F)F)cn1 [Cpd Q] | 2% | 2(0.6) % | 1% and 2% and 3% |  | 8% | 8(2.2) % | 12% and 6% and 5% | Inactive | 
10 | Cc1cc(-c2cc(NC(=O)c3cccnc3)cnc2OCC(F)(F)F)ccn1 [Cpd R] | -10% | -10(5) % |  |  | 17% | 17(5.0) % |  | Inactive | 
11 | Cc1cncc(-c2cc(NC(=O)c3cccnc3)cnc2OCC(F)(F)F)c1 [Cpd S] | 2.67% | 3(0.8) % | 1% and 3% and 4% |  | 0.333% | 0(0.3) % | 0% and 1% | Inactive | 
12 | CCOC(=O)C(CCc1ccccc1)NC(C)C(=O)N1C(C(=O)O)CC2CCCC21 (stereo not drawn) [Ramp] |  |  |  |  |  |  |  |  | BUN (Col4a3 KO mice; [4]): 33 mg/dL and 30 mg/dL and 43 mg/dL and 36 mg/dL and 26 mg/dL and 46 mg/dL and 42 mg/dL and 39 mg/dL; Serum Creatinine (Col4a3 KO mice; [4]): 1.99 µg/mL and 0.12 µg/mL and 2 µg/mL and 3.6 µg/mL and 0.9 µg/mL and 0.28 µg/mL and 1.66 µg/mL
13 | O=S(=O)(c1ccccc1)N(CC(F)(F)F)c1ccc(C(O)(C(F)(F)F)C(F)(F)F)cc1 [T1317, reference compound] |  |  |  |  |  |  |  |  | Upregulation of ABCA1 mRNA (ABCA1 mRNA; cholesterol-loaded THP1 macrophages): ~ 5 fold; Cholesterol efflux to apoAI from normal fibroblasts (normal human fibroblasts): increase cholesterol efflux to apoAI from normal; Cholesterol Efflux (%), Normal Fibroblasts (normal human fibroblasts): 5.16% and 5.7% and 5.82%; Cholesterol efflux to apoAI from ABCA1-deficient fibroblasts [2]: not from ABCA1-deficient fibroblasts; Cholesterol Efflux (%), Tangier Fibroblasts [2]: 2.04% and 2.39% and 2.47%
14 | Cc1c(C(=O)c2cccc3ccccc23)c2cccc3c2n1[C@H](CN1CCOCC1)CO3 [WIN55-212-2, reference compound] |  |  |  |  |  |  |  |  | ApoA1-mediated Cholesterol Efflux (Fold increase over vehicle control), mean (human THP1 macrophages): 0.882 fold; ApoA1-mediated Cholesterol Efflux (%) (human THP1 macrophages): 2.57% and 2.5% and 1.3%; ApoA1-mediated Cholesterol Efflux (Fold increase over vehicle control) (human THP1 macrophages): 0.895 fold and 1.016 fold and 0.735 fold; Induction of ABCA1 cholesterol efflux (human THP1 macrophages): inactive
15 | [3H]c1nc(OCC2CC2)c(-c2ccc(N=[N+]=[N-])c(Cl)c2)c([3H])c1C(=O)N[C@@H]1CCCC[C@H]1O [^3H-Cpd K] |  |  |  | 2570 nM |  |  |  |  | EC50 (human THP1 macrophages): 200 nM; Reduction of binding/crosslinking to OSBPL7 by mutation K636A [3]: ~ 75%
16 | CCOC(=O)[C@H](CCc1ccccc1)N[C@@H](C)C(=O)N1[C@H](C(=O)O)C[C@@H]2CCC[C@@H]21 [ramipril, reference compound] |  |  |  |  |  |  |  |  | Albumin to Creatinine ratio (Col4a3 KO mice; spot urines, 8-week old Col4a3 KO mice treated from the age of 4 weeks, listed as Ram): 31.85 mg Alb. /mg Cre and 41.0281 mg Alb. /mg Cre and 31.514 mg Alb. /mg Cre and 21.7026 mg Alb. /mg Cre and 31.192 mg Alb. /mg Cre
17 | Cc1c(C(=O)NN2CCCCC2)nn(-c2ccc(Cl)cc2Cl)c1-c1ccc(Cl)cc1 [rimonabant, reference compound] | 0% | 0(0) % | 0% |  | 0% | 0(0) % | 0% | Inactive | ApoA1-mediated Cholesterol Efflux (%) (human THP1 macrophages): 3.95% and 2.4% and 1.2%; Induction of ABCA1 cholesterol efflux (human THP1 macrophages): did not induce ABCA1 cholesterol efflux
